Test system: CD8+ T cells
Experiment: In vitro immunogenicity of HLA-A*2402 restricted TUMAPs: priming of CD8+ T cells with pMHC/anti-CD28 coated beads (aAPC), multimer staining
Assay type: cell-based, human
Settings: HLA-A*2402 peptides, healthy donors, three stimulation cycles; for Wells positive/evaluable [%]: at least 48 wells evaluable; for Donors positive/evaluable [%]: at least four donors evaluable
Description: In order to perform in vitro stimulations by artificial antigen presenting cells (aAPC) loaded with peptide-MHC complex (pMHC) and anti-CD28 antibody, we first isolated CD8 T cells from fresh HLA-A*24 leukapheresis products or from HLA-A*2 buffy coats of healthy donors obtained from the Blood Bank Tuebingen.
CD8 T cells were either directly enriched or PBMCs (peripheral blood mononuclear cells) were isolated first by using standard gradient separation medium (PAA, Colbe, Germany). Isolated CD8 lymphocytes or PBMCs were incubated until use in T-cell medium (TCM) consisting of RPMI-Glutamax (Invitrogen, Karlsruhe, Germany) supplemented with 10% heat inactivated human AB serum (PAN-Biotech, Aidenbach, Germany), 100 U/ml Penicillin/100 μg/ml Streptomycin (Cambrex, Cologne, Germany), 1 mM sodium pyruvate (CC Pro, Oberdorla, Germany), 20 μg/ml Gentamycin (Cambrex). […] Isolation of CD8+ lymphocytes was performed by positive selection using CD8 MicroBeads (Miltenyi Biotec, Bergisch-Gladbach, Germany).
800.000 beads/200 μl were coated in 96-well plates in the presence of 600 ng biotin-anti-CD28 plus 200 ng relevant biotin-pMHC (high density beads). […] Half of the medium was then exchanged by fresh TCM supplemented with 80 U/ml IL-2 and incubation was continued for 3-4 days at 37° C. This stimulation cycle was performed for a total of three times.
In vitro priming of specific multimer+ CD8+ lymphocytes was detected by appropriate gating and by comparing to negative control stimulations.

DYAYLREHF (listed as Homo sapiens) [ZNF598-001]
Wells positive/evaluable [%]: 17%
Donors positive/evaluable [%]: 83%

NYEETFPHI (listed as Homo sapiens) [MUC6-001]
Wells positive/evaluable [%]: 22%
Donors positive/evaluable [%]: 83%

SYQKVIELF (listed as Homo sapiens) [PBK-001]
Wells positive/evaluable [%]: 0%
Donors positive/evaluable [%]: 0%

SYIDVLPEF (listed as Homo sapiens) [MET-006]
Wells positive/evaluable [%]: 21%
Donors positive/evaluable [%]: 67%

SYATLLHVL (listed as Homo sapiens) [GPR39-001]
Wells positive/evaluable [%]: 6%
Donors positive/evaluable [%]: 50%

RYLPQCSYF (listed as Homo sapiens) [CCND2-001]
Wells positive/evaluable [%]: 10%
Donors positive/evaluable [%]: 17%

HYKPTPLYF (listed as Homo sapiens) [SMC4-001]
Wells positive/evaluable [%]: 10%
Donors positive/evaluable [%]: 73%

VFDTAIAHLF (listed as Homo sapiens) [SIAH2-001]
Wells positive/evaluable [%]: 8%
Donors positive/evaluable [%]: 50%

SYLELVKSL (listed as Homo sapiens) [SDHC-001]
Wells positive/evaluable [%]: 3%
Donors positive/evaluable [%]: 33%

FYISPVNKL (listed as Homo sapiens) [AVL9-001]
Wells positive/evaluable [%]: 31%
Donors positive/evaluable [%]: 100%

SYNVTSVLF (listed as Homo sapiens) [LCN2-001]
Wells positive/evaluable [%]: 1%
Donors positive/evaluable [%]: 17%

IYPDASLLI (listed as Homo sapiens) [CEA-010]
Wells positive/evaluable [%]: 3%
Donors positive/evaluable [%]: 40%

VYTTSYQQI (listed as Homo sapiens) [NFYB-001]
Wells positive/evaluable [%]: 7%
Donors positive/evaluable [%]: 50%

AYPTVKFYF (listed as Homo sapiens) [DNAJC10-002]
Wells positive/evaluable [%]: 3%
Donors positive/evaluable [%]: 33%

SYIIDPLNL (listed as Homo sapiens) [PROM1-001]
Wells positive/evaluable [%]: 26%
Donors positive/evaluable [%]: 83%

VYISSLALL (listed as Homo sapiens) [PSMD14-001]
Wells positive/evaluable [%]: 1%
Donors positive/evaluable [%]: 17%

VYKVVGNLL (listed as Homo sapiens) [IQGAP3-001]
Wells positive/evaluable [%]: 24%
Donors positive/evaluable [%]: 100%

TYGNLLDYL (listed as Homo sapiens) [ABL1-001]
Wells positive/evaluable [%]: 18%
Donors positive/evaluable [%]: 83%

VYNPTPNSL (listed as Homo sapiens) [COL12A1-001]
Wells positive/evaluable [%]: 0%
Donors positive/evaluable [%]: 0%

NYLLYVSNF (listed as Homo sapiens) [MST1R-001]
Wells positive/evaluable [%]: 13%
Donors positive/evaluable [%]: 50%

RYLWATVTI (listed as Homo sapiens) [ASPM-001]
Wells positive/evaluable [%]: 3%
Donors positive/evaluable [%]: 17%

RYLPKGFLNQF (listed as Homo sapiens) [PTK2-001]
Wells positive/evaluable [%]: 4%
Donors positive/evaluable [%]: 17%

VYPNWAIGL (listed as Homo sapiens) [SLC6A6-001]
Wells positive/evaluable [%]: 1%
Donors positive/evaluable [%]: 17%

YYYVGFAYL (listed as Homo sapiens) [EIF'3L-001]
Wells positive/evaluable [%]: 29%
Donors positive/evaluable [%]: 100%

LYPEVFEKF (listed as Homo sapiens) [ATAD2-003]
Wells positive/evaluable [%]: 0%
Donors positive/evaluable [%]: 0%

VYGIRLEHF (listed as Homo sapiens) [NUF2-001]
Wells positive/evaluable [%]: 50%
Donors positive/evaluable [%]: 100%

LYQILQGIVF (listed as Homo sapiens) [CDC2-001]
Wells positive/evaluable [%]: 28%
Donors positive/evaluable [%]: 83%

LYLENIDEF (listed as Homo sapiens) [POLD3-001]
Wells positive/evaluable [%]: 7%
Donors positive/evaluable [%]: 67%

VYIEKNDKL (listed as Homo sapiens) [ERBB3-001]
Donors positive/evaluable [%]: 83%

VYTTMAEHF (listed as Homo sapiens) [TSPAN1-002]
Wells positive/evaluable [%]: 1%
Donors positive/evaluable [%]: 17%

VYFSKSEQL (listed as Homo sapiens) [EPHA2-005]
Wells positive/evaluable [%]: 0%
Donors positive/evaluable [%]: 0%

RFLSGIINF (listed as Homo sapiens) [NUF2-002]
Wells positive/evaluable [%]: 6%
Donors positive/evaluable [%]: 50%

YYNAAGFNKL (listed as Homo sapiens) [UQCRB-001]
Wells positive/evaluable [%]: 24%
Donors positive/evaluable [%]: 83%

NYLPFIMEL (listed as Homo sapiens) [UCHL5-001]
Wells positive/evaluable [%]: 12%
Donors positive/evaluable [%]: 75%

QYIDKLNEL (listed as Homo sapiens) [CCDC88A-001]
Wells positive/evaluable [%]: 0%
Donors positive/evaluable [%]: 0%

VFIFKGNQF (listed as Homo sapiens) [MMP3-001]
Wells positive/evaluable [%]: 1%
Donors positive/evaluable [%]: 11%

IFSKIVSLF (listed as Homo sapiens) [EIF2S3-001]
Wells positive/evaluable [%]: 1%
Donors positive/evaluable [%]: 17%

SYLQAANAL (listed as Homo sapiens) [COL6A3-001]
Wells positive/evaluable [%]: 0%
Donors positive/evaluable [%]: 0%

RYLEGTSCI (listed as Homo sapiens) [EPPK1-001]
Wells positive/evaluable [%]: 1%
Donors positive/evaluable [%]: 17%

VWSDVTPLTF (listed as Homo sapiens) [MMP11-001]
Wells positive/evaluable [%]: 11%
Donors positive/evaluable [%]: 33%

IYNGKLFDLL (listed as Homo sapiens) [KIF2C-001]
Wells positive/evaluable [%]: 2%
Donors positive/evaluable [%]: 17%

SYNPLWLRI (listed as Homo sapiens) [ASPM-002]
Wells positive/evaluable [%]: 32%
Donors positive/evaluable [%]: 67%

AYAIIKEEL (listed as Homo sapiens) [ATAD2-001]
Wells positive/evaluable [%]: 3%
Donors positive/evaluable [%]: 33%

YYKNIGLGF (listed as Homo sapiens) [RPS11-001]
Wells positive/evaluable [%]: 3%
Donors positive/evaluable [%]: 17%

QYASRFVQL (listed as Homo sapiens) [PLK4-001]
Wells positive/evaluable [%]: 5%
Donors positive/evaluable [%]: 60%

KYLTVKDYL (listed as Homo sapiens) [ATAD2-002]
Wells positive/evaluable [%]: 1%
Donors positive/evaluable [%]: 17%

FYQPKIQQF (listed as Homo sapiens) [FANCI-001]
Wells positive/evaluable [%]: 1%
Donors positive/evaluable [%]: 17%

AYLVYTDRL (listed as Homo sapiens) [PPAP2C-001]
Wells positive/evaluable [%]: 29%
Donors positive/evaluable [%]: 83%

IYLEVIHNL (listed as Homo sapiens) [DNAJC10-001]
Wells positive/evaluable [%]: 15%
Donors positive/evaluable [%]: 50%

DYTIGFGKF (listed as Homo sapiens) [ITGB4-001]
Wells positive/evaluable [%]: 20%
Donors positive/evaluable [%]: 67%

KYNDTFWKEF (listed as Homo sapiens) [HSP90B1-001]
Wells positive/evaluable [%]: 7%
Donors positive/evaluable [%]: 50%

IYAPKLQEF (listed as Homo sapiens) [CCNE2-001]
Wells positive/evaluable [%]: 0%
Donors positive/evaluable [%]: 0%

VYLLNSTTL (listed as Homo sapiens) [CLCN3-001]
Wells positive/evaluable [%]: 6%
Donors positive/evaluable [%]: 33%

MYMTVSIIDRF (listed as Homo sapiens) [CCNB1-003]
Wells positive/evaluable [%]: 3%
Donors positive/evaluable [%]: 33%
